Data: patent US7138361B2, “Herbicidal heterocycles” (E. I. du Pont de Nemours and Company, priority 2000, dated 2006)

Assays:
Assay type in all cases: in vivo
[1] = test system: Surinam grass (Brachiaria decumbens); experiment: Test B postemergence
In short: (§1)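 Post-treatment, species sat 13–15 days under greenhouse conditions before visual scoring against controls, 0 (no effect) through 100 (complete control). Application preemergence to sown seeds or postemergence at 1- to 4-leaf stage, using a non-phytotoxic solvent/surfactant formulation.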

[2] = test system: barnyardgrass (Echinochloa crus-galli); experiment: Test B postemergence
In short: as §1

[3] = test system: blackgrass (Alopecurus myosuroides); experiment: Test B postemergence
In short: as §1

[4] = test system: cocklebur (Xanthium strumarium); experiment: Test B postemergence
In short: as §1

[5] = test system: corn (Zea mays); experiment: Test B postemergence
In short: as §1

[6] = test system: crabgrass (Digitaria sanguinalis); experiment: Test B postemergence
In short: as §1

[7] = test system: giant foxtail (Setaria faberii); experiment: Test B postemergence
In short: as §1

[8] = test system: lambsquarters (Chenopodium album); experiment: Test B postemergence
In short: as §1

[9] = test system: morning glory (Ipomoea hederacea); experiment: Test B postemergence
In short: as §1

[10] = test system: pigweed (Amaranthus retroflexus); experiment: Test B postemergence
In short: as §1

[11] = test system: velvetleaf (Abutilon theophrasti); experiment: Test B postemergence
In short: as §1

[12] = test system: wheat (Triticum aestivum); experiment: Test B postemergence
In short: as §1

[13] = test system: wild oat (Avena fatua); experiment: Test B postemergence
In short: as §1

[14] = test system: Surinam grass (Brachiaria decumbens); experiment: Test B preemergence
In short: as §1

[15] = test system: barnyardgrass (Echinochloa crus-galli); experiment: Test B preemergence
In short: as §1

[16] = test system: cocklebur (Xanthium strumarium); experiment: Test B preemergence
In short: as §1

[17] = test system: corn (Zea mays); experiment: Test B preemergence
In short: as §1

[18] = test system: crabgrass (Digitaria sanguinalis); experiment: Test B preemergence
In short: as §1

[19] = test system: giant foxtail (Setaria faberii); experiment: Test B preemergence
In short: as §1

[20] = test system: lambsquarters (Chenopodium album); experiment: Test B preemergence
In short: as §1

[21] = test system: morning glory (Ipomoea hederacea); experiment: Test B preemergence
In short: as §1

[22] = test system: pigweed (Amaranthus retroflexus); experiment: Test B preemergence
In short: as §1

[23] = test system: rice (Oryza saliva); experiment: Test B preemergence
In short: as §1

[24] = test system: velvetleaf (Abutilon theophrasti); experiment: Test B preemergence
In short: as §1

[25] = test system: Nightshade; experiment: Test C preemergence; conditions: Rate 500 g/ha, visual evaluation after 12 to 14 days
[26] = test system: Sunflower; experiment: Test C preemergence; conditions: Rate 250 g/ha, scale 0 to 100, 0 no effect, 100 complete control
[27] = Rate 125 g/ha, scale 0 (no effect) to 100 (complete control), 13 to 15 days
[28] = Rate 500 g/ha, scale 0 to 100, 0 is no effect, 100 is complete control, 13 to 15 days
[29] = Preemergence, Rate 500 g/ha, scale 0 to 100, 0 no effect, 100 complete control
[30] = preemergence, Rate 125 g/ha, scale of 0 to 100 where 0 is no effect and 100 is complete control, 13 to 15 days
[31] = Rate 125 g/ha, scale 0 to 100, 0 no effect, 100 complete control

## CC(C)(C)c1ccn(C2CCN(c3cccc(SC(F)(F)F)c3)C2=O)n1 (centres unmarked) [Compound 93]
[1]; [27]
  Plant response rating, Surinam grass: 0
[1]; [28]
  Plant response rating, Surinam grass: 0
[2]; [27]
  Plant response rating, Barnyardgrass: 0
[2]; [28]
  Plant response rating, Barnyardgrass: 0
[3]; [27]
  Plant response rating, Blackgrass: 0
[3]; [28]
  Plant response rating, Blackgrass: 0
[4]; [27]
  Plant response rating, Cocklebur: 30
[4]; [28]
  Plant response rating, Cocklebur: 50
[5]; [27]
  Plant response rating, Corn: 0
[5]; [28]
  Plant response rating, Corn: 0
[6]; [27]
  Plant response rating, Crabgrass: 0
[6]; [28]
  Plant response rating, Crabgrass: 0
[7]; [27]
  Plant response rating, Foxtail, Giant: 0
[7]; [28]
  Plant response rating, Foxtail, Giant: 0
[8]; [28]
  Plant response rating, Lambsquarters: 80
[9]; [28]
  Plant response rating, Morningglory: 10
[10]; [28]
  Plant response rating, Pigweed: 20
[11]; [28]
  Plant response rating, Velvetleaf: 10
[12]; [28]
  Plant response rating, Wheat: 0
[13]; [28]
  Plant response rating, Wild Oat: 0
[14]; [29]
  Plant response rating, Surinam grass: 70
[14]; [30]
  Plant response rating, Surinam grass: 0
[15]; [29]
  Plant response rating, Barnyardgrass: 100
[15]; [30]
  Plant response rating, Barnyardgrass: 0
[16]; [29]
  Plant response rating, Cocklebur: 0
[16]; [30]
  Plant response rating, Cocklebur: 0
[17]; [29]
  Plant response rating, Corn: 0
[17]; [30]
  Plant response rating, Corn: 0
[18]; [29]
  Plant response rating, Crabgrass: 100
[18]; [30]
  Plant response rating, Crabgrass: 20
[19]; [29]
  Plant response rating, Foxtail, Giant: 90
[19]; [30]
  Plant response rating, Foxtail, Giant: 20
[20]; [29]
  Plant response rating, Lambsquarters: 100
[20]; [30]
  Plant response rating, Lambsquarters: 60
[21]; [29]
  Plant response rating, Morningglory: 0
[21]; [30]
  Plant response rating, Morningglory: 0
[22]; [29]
  Plant response rating, Pigweed: 80
[22]; [30]
  Plant response rating, Pigweed: 0
[23]; [29]
  Plant response rating, Rice: 0
[23]; [30]
  Plant response rating, Rice: 0
[24]; [29]
  Plant response rating, Velvetleaf: 0
[24]; [30]
  Plant response rating, Velvetleaf: 0
[25]
  Plant response rating (0 to 100), Nightshade: 10
[26]
  Plant response rating, Sunflower: 0

## CCC(C)Oc1cccc(N2CCC(n3ccc(C(C)(C)C)n3)C2=O)c1 (centres unmarked) [Compound 127]
[1]; [31]
  Plant response rating, Surinam grass: 0
[1]; [28]
  Plant response rating, Surinam grass: 0
[2]; [31]
  Plant response rating, Barnyardgrass: 0
[2]; [28]
  Plant response rating, Barnyardgrass: 0
[3]; [31]
  Plant response rating, Blackgrass: 0
[3]; [28]
  Plant response rating, Blackgrass: 0
[4]; [31]
  Plant response rating, Cocklebur: 0
[4]; [28]
  Plant response rating, Cocklebur: 60
[5]; [31]
  Plant response rating, Corn: 0
[5]; [28]
  Plant response rating, Corn: 0
[6]; [31]
  Plant response rating, Crabgrass: 0
[7]; [31]
  Plant response rating, Foxtail, Giant: 0
[8]; [31]
  Plant response rating, Lambsquarters: 30
[9]; [31]
  Plant response rating, Morningglory: 0
[10]; [31]
  Plant response rating, Pigweed: 0
[11]; [31]
  Plant response rating, Velvetleaf: 0
[12]; [31]
  Plant response rating, Wheat: 0
[13]; [31]
  Plant response rating, Wild Oat: 0
[14]; [29]
  Plant response rating, Surinam grass: 70
[14]; [30]
  Plant response rating, Surinam grass: 0
[15]; [29]
  Plant response rating, Barnyardgrass: 100
[15]; [30]
  Plant response rating, Barnyardgrass: 0
[16]; [29]
  Plant response rating, Cocklebur: 0
[16]; [30]
  Plant response rating, Cocklebur: 0
[17]; [29]
  Plant response rating, Corn: 0
[17]; [30]
  Plant response rating, Corn: 0
[18]; [29]
  Plant response rating, Crabgrass: 100
[18]; [30]
  Plant response rating, Crabgrass: 100
[19]; [29]
  Plant response rating, Foxtail, Giant: 100
[19]; [30]
  Plant response rating, Foxtail, Giant: 70
[20]; [29]
  Plant response rating, Lambsquarters: 100
[20]; [30]
  Plant response rating, Lambsquarters: 90
[21]; [29]
  Plant response rating, Morningglory: 0
[21]; [30]
  Plant response rating, Morningglory: 0
[22]; [29]
  Plant response rating, Pigweed: 100
[22]; [30]
  Plant response rating, Pigweed: 0
[23]; [29]
  Plant response rating, Rice: 50
[23]; [30]
  Plant response rating, Rice: 0
[24]; [29]
  Plant response rating, Velvetleaf: 0
[24]; [30]
  Plant response rating, Velvetleaf: 0
[25]
  Plant response rating (0 to 100), Nightshade: 100
[26]
  Plant response rating, Sunflower: 0
